Data reported in PMC3769273, “The Relationship between Functional Inhibition and Binding for KCa2 Channel Blockers” (PLoS ONE, 2013).

Tests used:
KCa2.2 [1] = target: T1, KCa2.2 (Rattus norvegicus, UniProt P70604); assay: Competition binding: inhibition of 125I-apamin binding to HEK 293 cells expressing KCa2.2; conditions: for Ki: KCa2.2, Cheng-Prussoff correction, read-out: K i for displacement of mono-iodoapamin
T1 construct: expressed in transfected cells; host or cells: HEK 293 cells, transient transfection (Lipofectamine 2000) with channel plasmid plus a separate GFP plasmid; Some experiments used stably transfected cells
T1 sequence (P70604 whole entry): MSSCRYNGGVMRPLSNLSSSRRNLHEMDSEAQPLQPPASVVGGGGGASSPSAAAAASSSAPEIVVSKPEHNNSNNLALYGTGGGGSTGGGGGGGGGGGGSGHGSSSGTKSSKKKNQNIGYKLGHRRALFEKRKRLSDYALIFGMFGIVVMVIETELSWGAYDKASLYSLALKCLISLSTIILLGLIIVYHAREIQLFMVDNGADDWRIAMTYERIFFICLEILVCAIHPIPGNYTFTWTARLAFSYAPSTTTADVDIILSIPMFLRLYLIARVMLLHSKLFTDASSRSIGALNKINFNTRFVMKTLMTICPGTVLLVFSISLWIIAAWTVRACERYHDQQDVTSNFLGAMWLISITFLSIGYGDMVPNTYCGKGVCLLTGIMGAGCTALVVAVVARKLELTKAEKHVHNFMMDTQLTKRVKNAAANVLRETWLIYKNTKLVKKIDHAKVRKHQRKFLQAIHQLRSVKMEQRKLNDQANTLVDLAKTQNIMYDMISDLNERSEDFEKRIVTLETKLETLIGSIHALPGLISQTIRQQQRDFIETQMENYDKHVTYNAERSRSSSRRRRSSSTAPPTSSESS
Method: (§1) Radio-ligand binding studies were conducted using HEK 293 cell lines stably expressing KCa2.2 or KCa2.3. The cells were cultured in DMEM supplemented with 10% foetal calf serum, 2 mM L-glutamine, penicillin (200 units ml^–1) and streptomycin (100 µg ml^–1) in T500 flasks (Nunc). When confluent, these cells were harvested mechanically (to avoid the use of trypsin) into Ca^2+/Mg^2+ free HBSS. The cells were centrifuged at 50 g for 2 min, resuspended in DMEM at a density of approximately 2.5×10^6 cells ml^–1 and stored at 4°C until used (<2 hr). Cell density was estimated using a haemocytometer.
(§2) Routinely, incubations were performed in a total volume of 250 µl comprising 100 µl cell suspension (∼250000 cells), 100 µl ^125I-apamin and 50 µl displacing agent or incubation medium. The incubation medium contained (in mM) NaCl 140, KCl 5, MgCl2 1, CaCl2 2, glucose 10 and HEPES 10. The pH was adjusted to 7.4 with 1 M NaOH. Non-specific binding was estimated in the presence of 100 nM UCL 1848, a potent KCa2 channel blocker which causes maximal inhibition at this concentration (see Hosseini et al., Benton et al.[13]). Measurements for each test were performed in triplicate. Separation of cells from unbound ligand was achieved by rapid filtration through Whatman GF/B filters pre-treated with 0.3% v/v polyethyleneimine using a Skatron AS harvester. The quantity of labelled apamin bound was measured using a calibrated γ counter (LKB 1275) and expressed as fmol label/10^6 cells. All binding experiments were conducted at room temperature (20–25°C).
(§3) The ability of test compounds to inhibit ^125I-apamin binding was measured in the presence of 20–60 pM ^125I-apamin with or without the test compound. In every experiment each concentration of inhibitor was tested in triplicate and the data presented represents the mean of at least two separate experiments. Inhibition curves were fitted by a variant of Hill-Langmuir equation: [drawing 3] where B I is the specific binding of label in the presence of inhibitor as a percentage of the binding in its absence. Estimates of K i were obtained using the Cheng-Prussoff correction taking estimates of K L from the saturation binding studies.

KCa2.3 [2] = target: T2, KCa2.3 (Rattus norvegicus, UniProt P70605); assay: Competition binding: inhibition of 125I-apamin binding to HEK 293 cells expressing KCa2.3; conditions: for Ki: KCa2.3, Cheng-Prussoff correction, read-out: K i for displacement of mono-iodoapamin
T2 construct: expressed in transfected cells; host or cells: HEK 293 cell line stably expressing KCa2.3, made in house by zeocin selection
T2 sequence (P70605 whole entry): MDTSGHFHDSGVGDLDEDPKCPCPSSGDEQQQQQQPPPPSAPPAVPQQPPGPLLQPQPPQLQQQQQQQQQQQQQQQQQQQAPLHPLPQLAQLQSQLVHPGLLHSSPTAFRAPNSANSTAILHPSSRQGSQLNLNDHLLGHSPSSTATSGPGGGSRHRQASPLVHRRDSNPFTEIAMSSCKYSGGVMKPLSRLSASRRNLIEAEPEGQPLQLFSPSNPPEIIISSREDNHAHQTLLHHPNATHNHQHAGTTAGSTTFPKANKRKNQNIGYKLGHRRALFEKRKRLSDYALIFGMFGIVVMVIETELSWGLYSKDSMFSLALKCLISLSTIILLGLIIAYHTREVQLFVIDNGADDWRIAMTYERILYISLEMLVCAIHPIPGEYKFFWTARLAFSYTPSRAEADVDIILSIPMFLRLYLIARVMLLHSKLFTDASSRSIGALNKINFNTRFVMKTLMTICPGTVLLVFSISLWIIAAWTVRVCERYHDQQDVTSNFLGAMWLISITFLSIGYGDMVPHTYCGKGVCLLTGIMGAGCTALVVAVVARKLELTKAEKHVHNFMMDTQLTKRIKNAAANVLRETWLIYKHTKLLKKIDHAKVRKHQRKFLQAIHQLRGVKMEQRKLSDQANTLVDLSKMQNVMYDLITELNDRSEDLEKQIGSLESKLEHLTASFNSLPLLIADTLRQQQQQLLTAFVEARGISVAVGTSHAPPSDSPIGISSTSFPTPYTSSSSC
Method: as §1, §2, §3

KCa2.2 [3] = target: T1, KCa2.2; assay: cell-based; assay type: cell-based; conditions: for IC50: KCa2.2, standard physiological solution, measured at −20 mV, read-out: IC50 for inhibition of KCa2 current; for common Hill slope of concentration-inhibition curves: KCa2.2 current, standard solution
Method: For electrophysiology, wild type and stably transfected HEK cells were plated in 35 mm dishes. In most experiments KCa2.2 was transiently expressed in HEK 293 cells. Transient transfection was achieved using Lipofectamine 2000 (Invitrogen) according to the manufacturer's instructions. Briefly, 2 µg channel plasmid and 1 µg QBI (QBiogene), which expresses GFP, was mixed with 3 µg Lipofectamine 2000 and added to each 35 mm dish. GFP expressing cells were identified by epi-fluorescence. Conventional whole cell recordings were made using an EPC9 amplifier controlled by Pulse software (Heka). Data were filtered at 1 kHz and acquired at 5 kHz. Borosilicate glass patch pipettes (2–5 MΩ) were coated with Sylgard resin, fire polished and filled with a solution containing (in mM): KCl 140, HEPES 10, K2HEDTA 5, and either 1.2 CaCl2 (free Ca^2+ = 1 µM) or no added Ca^2+ (free Ca^2+ <10 nM). The pH was adjusted to 7.2 with 1 M KOH. Free Ca^2+ concentrations were calculated using the REACT program (G.L. Smith, University of Glasgow) and stability constants for HEDTA published in Martell and Smith. Except where stated the extracellular solution was the same as the incubation medium used in binding experiments. As with binding studies all experiments were performed at room temperature (20–25°C).
Routinely, cells were held at −80 mV and 100 ms test pulses applied to potentials between −120 mV and 40 mV. […] In order to avoid contamination of KCa2 current by the endogenous currents, inhibition by blocking agents was measured at −20 mV.
Concentration-inhibition curves were fitted by a variant of the Hill equation with the form: [drawing 4] where y is the current in the presence of blocker at concentration [B] expressed as a percentage of control and n is the Hill coefficient.

KCa2.3 [4] = conditions: KCa2.3, CHO cells, ref Hosseini et al. 2000; read-out: IC50 for inhibition of KCa2 current; cited from earlier work

Molecule	Ki (KCa2.2 [1]) [nM]	Ki (KCa2.3 [2]) [nM]	IC50 (KCa2.2 [3]) [nM]	common Hill slope of concentration-inhibition curves (KCa2.2 [3])	IC50 (KCa2.3 [4]) [nM]	inhibition of total 125I-apamin binding (KCa2.2 [1]; 100 nM UCL 1848, 30 pM 125I-apamin, KCa2.2 expressing HEK 293 cells)	inhibition of total 125I-apamin binding (KCa2.3 [2]; 100 nM UCL 1848, 30 pM 125I-apamin, KCa2.3 expressing HEK 293 cells)
CC[N+](CC)(CC)CCOc1cccc(OCC[N+](CC)(CC)CC)c1OCC[N+](CC)(CC)CC [Gallamine, gallamine]	26000 ± 5000	71000 ± 8000	7000 ± 800	0.7±0.04	98000 ± 700	–	–
8,14-diaza-1,7(1, 4)-diquinolinacyclotetradecaphane [UCL 1848]	0.095 ± 0.0017	0.652 ± 0.18	0.125 ± 0.0025	0.7±0.04	2.1 ± 0.3	almost completely inhibited	almost completely inhibited
c1cc2cc(c1)C[n+]1ccc(c3ccccc31)NCc1ccc(cc1)CNc1cc[n+](c3ccccc13)C2 [UCL1684, 6,10–diaza-3(1,3),8(1,4)-dibenzena-1,5(1,4)- diquinolinacyclodecaphane]	1.01 ± 0.022	7.7 ± 1.6	0.53 ± 0.008	0.7±0.04	5.8 ± 0.3	–	–
Cc1cc(N)c2ccccc2[n+]1CCCCCCCCCC[n+]1c(C)cc(N)c2ccccc21 [Dequalinium, dequalinium]	977 ± 165	865 ± 160	420 ± 99	0.7±0.04	920 ± 140	–	–
